Data from US12435061B2 (priority 2020, dated 2025).
pIC50: −log10 of the molar value. Structures can show the parent of a compound that is named as a salt. Where two headings read alike, the source gives them in different places. Each block holds one compound with its values, some of them ahead of it.

Target: hTRPV3 (Homo sapiens (Human), UniProt Q8NET8)
Assay: Whole-cell patch clamp, hTRPV3 Phase 1 / Phase 2 currents
Format: cell-based
Details: for pIC50: inward, whole-cell patch clamp
Method in brief: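 Whole-cell recordings on induced TRPV3 cells replated on coverslips, held at −40 mV with 400 ms ramps from −120 to +100 mV every 5 s; currents read at −80 and +80 mV. Ringer's external solution; current activated by heating to ≥28 °C or 20 μM 2-APB.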

[1] = Phase 1 current, read-out: hTRPV3 Patch P1 Inwd
[2] = Phase 1 current, read-out: hTRPV3 (nM) (Phase 1)
[3] = Phase 1 current, human TRPV3, read-out: hTRPV3 (nM) Phase 1
[4] = Phase 2 current, read-out: hTRPV3 Patch P2 Inwd
[5] = Phase 2 current, read-out: hTRPV3 (nM) (Phase 2)

Chain of hTRPV3 (Q8NET8 whole entry): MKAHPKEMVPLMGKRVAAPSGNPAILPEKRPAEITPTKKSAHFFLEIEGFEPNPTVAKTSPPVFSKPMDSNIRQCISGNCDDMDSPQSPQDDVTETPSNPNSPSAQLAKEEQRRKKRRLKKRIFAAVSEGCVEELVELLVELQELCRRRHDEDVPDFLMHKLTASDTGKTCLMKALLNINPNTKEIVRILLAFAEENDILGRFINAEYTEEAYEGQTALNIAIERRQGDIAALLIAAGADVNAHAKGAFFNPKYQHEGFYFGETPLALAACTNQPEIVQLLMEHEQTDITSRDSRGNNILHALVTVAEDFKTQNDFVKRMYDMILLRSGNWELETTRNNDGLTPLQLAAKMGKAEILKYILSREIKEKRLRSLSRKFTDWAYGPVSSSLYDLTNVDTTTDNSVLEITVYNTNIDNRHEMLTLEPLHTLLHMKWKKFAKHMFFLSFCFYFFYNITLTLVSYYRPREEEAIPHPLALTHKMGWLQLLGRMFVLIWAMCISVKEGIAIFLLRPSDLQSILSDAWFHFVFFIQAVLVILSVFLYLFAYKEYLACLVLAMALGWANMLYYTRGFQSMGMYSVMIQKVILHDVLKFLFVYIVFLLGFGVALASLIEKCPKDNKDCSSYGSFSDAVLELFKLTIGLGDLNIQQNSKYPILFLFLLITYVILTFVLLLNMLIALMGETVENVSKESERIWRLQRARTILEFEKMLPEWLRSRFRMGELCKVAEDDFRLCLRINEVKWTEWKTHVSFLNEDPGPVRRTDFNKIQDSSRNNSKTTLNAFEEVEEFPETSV

Compound: OCCc1ccc(C(O)c2ccccc2Cl)cc1N1CC[C@H](Oc2ncccc2Cl)C1 (stereo partly drawn) [Compound 1-354, 2-(4-((2-chlorophenyl)(hydroxy)methyl)-2-((S)-3-(3-chloropyridin-2-yloxy)pyrrolidin-1-yl)phenyl)ethanol]
pIC50 [1]: < 6.00
IC50 [2]: 1010 nM

Compound: CC(C)c1ccccc1Oc1ccc(C2CC(=O)N(Cc3ccc(Cl)cn3)C2)c(C(N)=O)c1 (centres unmarked) [Compound 2-102, 2-(1-((5-chloropyridin-2-yl)methyl)-5-oxopyrrolidin-3-yl)-5-(2-isopropylphenoxy)benzamide]
IC50 [3]: ~2150 nM
pIC50 [1]: < 6.00

Compound: CCc1ccccc1Oc1ccc(N2CC[C@H](Oc3ncccc3Cl)C2)c(C(N)=O)c1 [Compound 1-324]
hTRPV3 (nM) (Phase 1) (Phase 1 current): Incomplete Block (Phase 1)

Compound: CC(C)c1ccccc1Oc1ccc(C2CCN(C(=O)Cc3ncccc3Cl)C2)c(CO)c1 (centres unmarked) [Compound 2-117]
IC50 [3]: ~3500 nM
IC50 (Phase 2 current, human TRPV3, read-out: hTRPV3 (nM) Phase 2): 2620 nM

Compound: O=C(c1ccc(Cl)cc1)c1ccc(N2CC[C@H](Oc3ncccc3Cl)C2)c(CCO)c1 [Compound 1-291, (S)-(4-chlorophenyl)(4-(3-(3-chloropyridin-2-yloxy)pyrrolidin-1-yl)-3-(2-hydroxyethyl)phenyl)methanone]
pIC50 [1]: 6.00 to 7.00
IC50 [2]: ~188 nM
pIC50 [4]: 6.00 to 7.00
IC50 [5]: ~217 nM

Compound: Oc1cc(-c2ccccc2)ccc1N1CC[C@@H](Oc2ccc(C(F)(F)F)cn2)C1 [Compound 1-89, (R)-4-(3-(5-(trifluoromethyl)pyridin-2-yloxy)pyrrolidin-1-yl)biphenyl-3-ol]
pIC50 [1]: < 6.00
IC50 [2]: > 3200 nM
pIC50 [4]: < 6.00
IC50 [5]: > 3200 nM

Compound: Cc1cccc(C(O)c2ccc(N3CC[C@H](Oc4ncccc4Cl)C3)c(CO)c2)c1 (stereo partly drawn) [Compound 1-281, (4-((S)-3-(3-chloropyridin-2-yloxy)pyrrolidin-1-yl)-3-(hydroxymethyl)phenyl)(m-tolyl)methanol]
pIC50 [1]: < 6.00
IC50 [2]: 1100 nM

Compound: NC(=O)c1cc(-c2ccncc2)ccc1N1CC[C@@H](Oc2ncccc2Cl)C1 [Compound 1-82, (R)-2-(3-(3-chloropyridin-2-yloxy)pyrrolidin-1-yl)-5-(pyridin-4-yl)benzamide hydrochloride]
pIC50 [1]: < 6.00
IC50 [2]: 3600 nM
pIC50 [4]: < 6.00
IC50 [5]: 1930 nM

Compound: N#Cc1ccccc1N1CC[C@H](Oc2ccc(C(F)(F)F)cn2)C1 [Compound 1-11, (S)-2-(3-(5-(trifluoromethyl)pyridin-2-yloxy)pyrrolidin-1-yl)benzonitrile]
pIC50 [1]: < 6.00

Compound: COc1ccccc1-c1ccc(N2CC[C@H](Oc3ccc(Cl)cn3)C2)c(CO)n1 [Compound 1-202, (S)-(3-(3-(5-chloropyridin-2-yloxy)pyrrolidin-1-yl)-6-(2-methoxyphenyl)pyridin-2-yl)methanol]
hTRPV3 (nM) (Phase 1) (Phase 1 current): Incomplete Block (Phase 1)

Compound: CC(C)c1ccc(Oc2ccc(N3CC[C@H](Oc4ccccn4)C3)c(CO)c2)cc1 [Compound 1-325]
hTRPV3 (nM) (Phase 1) (Phase 1 current): Incomplete Block (Phase 1)

Compound: OCc1nc(-c2ccccc2)ccc1N1CC[C@H](Oc2nc(C(F)(F)F)cs2)C1 [Compound 1-396, (S)-(6-phenyl-3-(3-(4-(trifluoromethyl)thiazol-2-yloxy)pyrrolidin-1-yl)pyridin-2-yl)methanol]
pIC50 [1]: < 6.00
IC50 [2]: 1130 nM
pIC50 [4]: < 6.00
IC50 [5]: 2900 nM

Compound: Cc1cccc(Oc2ccc(N3CC[C@H](Oc4ncccc4Cl)C3)c(CO)c2)c1 [Compound 1-242, (S)-(2-(3-(3-chloropyridin-2-yloxy)pyrrolidin-1-yl)-5-(m-tolyloxy)phenyl)methanol]
pIC50 [1]: 7.00 to 8.00
IC50 [2]: 37 nM

Compound: CC(C)c1ccccc1-c1ccc(C2CCN(C(=O)c3ccccn3)C2)c(C(N)=O)c1 (centres unmarked) [Compound 2-45]
IC50 [3]: 929 nM
pIC50 [1]: 6.00 to 7.00

Compound: Cc1cccnc1-c1ccc(N2CC[C@H](Oc3ccc(C(F)(F)F)cn3)C2)c(CO)c1 [Compound 1-255, (S)-(5-(3-methylpyridin-2-yl)-2-(3-(5-(trifluoromethyl)pyridin-2-yloxy)pyrrolidin-1-yl)phenyl)methanol]
pIC50 [1]: 6.00 to 7.00
IC50 [2]: 806 nM

Compound: N#Cc1ccc(N2CC[C@@H](Oc3ccc(C(F)(F)F)cn3)C2)c(C(N)=O)c1 [Compound 1-34, (R)-5-cyano-2-(3-(5-(trifluoromethyl)pyridin-2-yloxy)pyrrolidin-1-yl)benzamide]
pIC50 [1]: < 6.00

Compound: O=C(c1csc(Cl)n1)N1CCC(c2ccc(-c3ccccc3C3CC3)cc2CO)C1 (centres unmarked) [Compound 2-124]
IC50 [3]: 20.7 nM

Compound: N#Cc1ccccc1-c1ccc(N2CC[C@H](Oc3ncccc3F)C2)c(CO)n1 [Compound 1-217, (S)-2-(5-(3-(3-fluoropyridin-2-yloxy)pyrrolidin-1-yl)-6-(hydroxymethyl)pyridin-2-yl)benzonitrile]
pIC50 [1]: < 6.00
IC50 [2]: 3900 nM

Compound: COc1ccc(Oc2ccc(N3CC[C@H](Oc4ccccn4)C3)c(CO)c2)cc1 [Compound 1-302]
pIC50 [1]: 6.00 to 7.00
IC50 [2]: 282 nM

Compound: CCOc1ccccc1-c1ccc(C2CCN(C(=O)c3ccc(F)cn3)C2)c(CO)c1 (centres unmarked) [Compound 2-59, (3-(2′-ethoxy-3-(hydroxymethyl)biphenyl-4-yl)pyrrolidin-1-yl)(5-fluoropyridin-2-yl)methanone]
IC50 [3]: 62.1 nM
pIC50 [1]: 7.00 to 8.00

Compound: CCc1ccccc1Oc1ccc(C2CC(=O)N(Cc3ccc(Cl)cn3)C2)c(C(N)=O)c1 (centres unmarked) [Compound 2-101, 2-(1-((5-chloropyridin-2-yl)methyl)-5-oxopyrrolidin-3-yl)-5-(2-ethylphenoxy)benzamide]
IC50 [3]: > 3200 nM
pIC50 [1]: < 6.00

pIC50 [1]: < 6.00
IC50 [2]: > 1000 nM
pIC50 [4]: < 6.00
IC50 [5]: > 1000 nM
Compound: O=C1C(Oc2ccc3ccccc3n2)CCN1c1cccc2ccccc12 (centres unmarked) [Compound 1-101]

Compound: Cc1nccnc1C(=O)N1CCC(c2ccc(-c3ccccc3C3CC3)cc2CO)C1 (centres unmarked) [Compound 2-104, (3-(2′-cyclopropyl-3-(hydroxymethyl)biphenyl-4-yl)pyrrolidin-1-yl)(3-methylpyrazin-2-yl)methanone]
IC50 [3]: 756 nM
pIC50 [1]: 6.00 to 7.00

Compound: CC(C)(C)OC(=O)NCc1ccc(-c2ccc(N3CC[C@H](Oc4ccc(C(F)(F)F)cn4)C3)c(CO)c2)cc1 [Compound 1-269, (S)-tert-butyl (3′-(hydroxymethyl)-4′-(3-(5-(trifluoromethyl)pyridin-2-yloxy)pyrrolidin-1-yl)biphenyl-4-yl)methylcarbamate]
pIC50 [1]: < 6.00
IC50 [2]: > 3200 nM

Compound: Cc1cccnc1O[C@H]1CCN(c2ccc(-c3ccccc3C#N)nc2CO)C1 [Compound 1-192, (S)-2-(6-(hydroxymethyl)-5-(3-(3-methylpyridin-2-yloxy)pyrrolidin-1-yl)pyridin-2-yl)benzonitrile]
pIC50 [1]: < 6.00
IC50 [2]: > 3200 nM
pIC50 [4]: < 6.00
IC50 [5]: ~2750 nM

Compound: OCc1cc(C(O)c2ccc(F)cc2)ccc1N1CC[C@H](Oc2ncccc2Cl)C1 (stereo partly drawn) [Compound 1-278, (4-((S)-3-(3-chloropyridin-2-yloxy)pyrrolidin-1-yl)-3-(hydroxymethyl)phenyl)(4-fluorophenyl)methanol]
pIC50 [1]: 6.00 to 7.00
IC50 [2]: 254 nM

Compound: Cc1ccc(C(=O)c2ccc(N3CC[C@H](Oc4ncccc4F)C3)c(CCO)c2)cc1 [Compound 1-309, (S)-(4-(3-(3-fluoropyridin-2-yloxy)pyrrolidin-1-yl)-3-(2-hydroxyethyl)phenyl)(p-tolyl)methanone]
pIC50 [1]: < 6.00
IC50 [2]: ~2080 nM
pIC50 [4]: 6.00 to 7.00
IC50 [5]: 822 nM
